Experiments:
Sprague-Dawley rats = test: Food intake in rats after intragastric infusion of anandamide; assay type: in vivo, rat; settings: for 9-h cumulative food intake: intragastric infusion in sunflower oil, rats food-deprived 15 h, control 27.1 g
Description: An experiment was conducted to measure the effect of different levels of anandamide intake on food intake in rats. Thirteen adult male Sprague-Dawley rats (Charles River, Germany) were surgically equipped with a chronic gastric cannula. Animals were individually housed in plastic cages (42×22×36 cm) with stainless steel grid floors in a temperature-controlled (22±2° C.) room. The 12:12-h light-dark cycle was inversed (lights off 09:00 h).
Rats had free access to water and restricted access to ground extruded feed (No. 3436, Provimi Kliba-nafag, Kaiseraugst, Switzerland). To prevent spoilage of food, it was placed in cups at the end of a tunnel (5×10×30 cm) that protruded from the side of the cage, with its bottom 5 cm above the cage floor. Food cups were mounted on electronic balances (Mettler PM 3000, Switzerland) that were interfaced with a computer (Olivetti M 300, Germany). Weights of the food cups were recorded the every 30 s, enabling continuous measurement of spontaneous feeding patterns. Anandamide (98% purity, dissolved in ethanol) was obtained from Cayman Chemical Company, Michigan, USA). It was stored deep-frozen, until the experiment. Than the proper quantity was mixed into sunflower oil.
Before starting the experimental period, rats (394±7 g) were adapted to the restricted food access. One day prior to the test, they were also adapted to infusion of sunflower oil. The experimental period lasted five consecutive days. During the experiment, rats were deprived from food each day for 15 h (18.00-9.00 h). […] Each of these doses was given to three rats. One rat was excluded from the experiment after 2 days, and a spare animal was included.

test animals = settings: introduced into the blood stream; neither decreased nor increased food intake; cited from earlier work
rats = settings: anandamide introduced by injection (Williams & Kirkham 2002); cited from earlier work

CCCCC/C=C\C/C=C\C/C=C\C/C=C\CCCC(=O)NCCO [anandamide, arachidonyl-ethanolamide]
9-h cumulative food intake (Sprague-Dawley rats; 2.5 mg anandamide/d): 25.8 g | food intake compared to the control (Sprague-Dawley rats; 2.5 mg/d, intragastric): did not affect food intake | 9-h cumulative food intake (Sprague-Dawley rats; 5.0 mg anandamide/d): 27.6 g | food intake calculated as a mean over the 9-h period (Sprague-Dawley rats; 5.0 mg versus 0 or 2.5 mg anandamide): significantly lower | food intake compared to the control (Sprague-Dawley rats; 5.0 mg, 3 through 6 hours after infusion, P<0.001, difference disappeared later): reduced food intake significantly | 9-h cumulative food intake, significance versus other treatments (Sprague-Dawley rats; 7.5 mg anandamide/d versus 0, 2.5 and 5.0 mg): significantly different from the other treatments | 9-h cumulative food intake (Sprague-Dawley rats; 7.5 mg anandamide/d): 23.0 g | food intake calculated as a mean over the 9-h period (Sprague-Dawley rats; 7.5 mg versus 0 or 2.5 mg anandamide): significantly lower | food intake compared to the control (Sprague-Dawley rats; 7.5 mg/d, until 9 h post-infusion): lower food intake persisted until 9 h post-infusion | voluntary food intake (test animals): ineffective | appetite / feeding effect (rats): Appetite stimulating effects were found

From patent US20100063156A1, “ANANDAMIDE” (priority 2006, published 2010)
